Measured values taken from US4567270A, “Hexahydroindolizinones useful for treating cardiac arrhythmia, thrombotic disorders in mammals” (G. D. Searle & Co., priority 1984, dated 1986).
Counter-ions that a name gives are not always drawn. Like-named read-outs stand apart in the source and are kept apart here.

Key:
[1] = test system: ventricular arrhythmia induced by coronary artery ligation; assay: Inhibition of ventricular arrhythmia induced by coronary ligation (two-stage ligation of left coronary artery); assay type: in vivo, dog; conditions: for minimal effective dose: Canis lupus familiaris, iv, read-out: Minimum Effective Dose
Description: Arrhythmias induced in this manner are considered similar in nature to those resulting from myocardial infarction in humans. […] The antiarrhythmic and antiaggregatory activities of the compounds of this invention illustrated in the examples were tested by the following methods.
Ventricular arrhythmia was induced by a two-stage ligation of the anterior descending branch of the left coronary artery in each of two or more dogs. Compounds were administered intraveneously using an initial 5 mg/kg body weight dose, with additional doses injected at intervals to a maximum of 20 mg/kg. A compound was rated active if it produced at least a 25% reduction in ectopic beats for a period of at least ten minutes in half or more of the dogs. The average minimum effective dose for each compound was calculated.
Compounds which produced 75-100% reduction in the ventricular arrhythmia at the initial 5 mg/kg dose were further tested using 1 mg/kg doses injected as before at five minute intervals. As before, a compound was rated active if it produced at least a 25% reduction in ectopic beats for a period of at least ten minutes in half or more of the dogs. The average minimum effective dose for each compound was calculated.

[2] = test system: ADP-induced aggregation of blood platelets; assay: Inhibition of ADP-induced platelet aggregation (optical platelet aggregometry in platelet-rich plasma); assay type: cell-based; conditions: rat platelet-rich plasma; one minute incubation, ADP usually 1-3 mcM
[3] = test system: ventricular arrhythmia induced by coronary artery ligation; conditions: dog; cited from earlier work
cardiac arrhythmia = conditions: cited from earlier work
[4] = cited from earlier work; for toxic / side effects: Goodman and Gilman
[5] = dog, i.v., coronary ligation, average minimum dose giving at least 25% reduction in ectopic beats for at least ten minutes in half or more of the dogs

IC50 [2] [µM] | Structure (SMILES) | minimal effective dose [1, 5] [mg/kg] | activity of known antiarrhythmics under coronary ligation conditions [3] | activity in man (cardiac arrhythmia) | toxic / side effects [4] | also measured
88 | CC(C)N(CCC1(c2ccccc2Cl)CC2CCCCN2C1=O)C(C)C (racemic) [Example 6, 2-[2-[bis(1-methylethyl)amino]ethyl]-2-(2-chlorophenyl)hexahydro-3(2H)-indolizinone, Racemate A] | 3 | – | – | – | –
– | CC(C)N(CCC1(c2ccccc2Cl)CC2CCCCN2C1=O)C(C)C (racemic) [Example 7, 2-[2-[bis(1-methylethyl)-amino]ethyl]-2-(2-chlorophenyl)hexahydro-3(2H)-indolizinone, Racemate B] | – | – | – | – | Minimum Effective Dose ([1]; dog, i.v., coronary ligation, average minimum dose giving at least 25% reduction in ectopic beats for at least ten minutes in half or more of the dogs, listed as Ex. 7): 5.0 mpk
– | CC(C)N(CCC(C(N)=O)(c1ccccc1)c1ccccn1)C(C)C (stereo not drawn) [Disopyramide] | – | active under these conditions | active in man | anticholinergic effects | minimal effective dose [1]: 9.2 mg/kg; Human dose (i.v.) (cardiac arrhythmia; human, i.v., comment in Table 1): ca. 2 mpk; effective refractory period of the atrium ([4]; at therapeutic levels): lengthens the effective refractory period of the atrium; refractory period of the A-V node ([4]; at therapeutic levels): minimal effect on the refractory period of the A-V node; sinus node recovery time ([4]; at therapeutic levels): shortens the sinus node recovery time
– | CC(C)N(CCC1(c2ccccc2)CC2CCCCN2C1=O)C(C)C (stereo not drawn) [Example 3, 2-[2-[bis(1-methylethyl)amino]ethyl]-hexahydro-2-phenyl-3(2H)-indolizinone] | 5 | – | – | – | –
34 | CC(C)N(CCC1(c2ccc(-c3ccccc3)cc2)CC2CCCCN2C1=O)C(C)C (stereo not drawn) [Example 10, 2-[2-[bis(1-methylethyl)amino]ethyl]-2-(4-phenylphenyl)hexahydro-3(2H)-indolizinone] | 3 | – | – | – | –
81 | CC(C)N(CCC1(c2ccccc2)CC2CCCCN2C1=O)C(C)C (stereo not drawn) [Example 11, 2-[2-[bis(1-methylethyl)amino]ethyl]hexahydro-2-phenyl-3(2H)-indolizinone hydrochloride hydrate] | – | – | – | – | –
– | CCN(CC)CCNC(=O)c1ccc(N)cc1 [Procainamide] | – | active under these conditions | active in man | – | –
– | CC(C)NCC(O)COc1cccc2ccccc12 (stereo not drawn) [Propranolol] | – | – | – | may induce significant hypotension, left ventricular failure, or even cardiovascular collapse | –
– | C=C[C@H]1C[N@@]2CC[C@H]1C[C@@H]2[C@@H](O)c1ccnc2ccc(OC)cc12 [Quinidine] | – | active under these conditions | active in man | exhibits several toxic reactions, such as cinchonism | –
